From paper PMC4077696 (PLoS Biology, 2014)
Where a name gives a salt, the structure may show the parent alone.

Assays:
[1] = system: P. falciparum protein translation; experiment: Global protein synthesis by radiolabeling parasite proteins after drug treatment; type: cell-based, Plasmodium falciparum; conditions: for Global protein synthesis after 23 h treatment of rings: 15 µM or 50>15 µM, BFA 5 µg/ml; for Global protein synthesis after 5 h treatment of trophozoites: 15 or 50 µM, BFA 10 µg/ml, 15 min labeling
Protocol: To gain further insight into the effects of 916, 024, and 025 on parasites, we assessed global protein synthesis following drug treatment by radiolabeling parasite proteins. Treatment of trophozoites with inhibitor for 5 h prior to radiolabeling had no detectable effect on translation, even at 50 µM concentrations (Figure S4A), indicating the compounds are not direct inhibitors of the translation machinery. We next assessed protein synthesis following 23 h of drug treatment of ring stage parasites (aged 1–3 h old at the initiation of treatment). […] Indeed, Giemsa smears following treatment identified a small proportion of pyknotic parasites in the population (results not shown). […] It is possible that PMV inhibition by 916 treatment has a similar but weaker effect to BFA, in that it causes the accumulation of uncleaved PEXEL precursors in the ER, perturbing ER transport, and that this negatively affects translation by an ER stress response. An alternative possibility is that translation was decreased slightly as a result of parasites dying from 916-mediated impairment of erythrocyte remodeling. Either way, the profile for 916 was different to that seen for 024 and 025, even at 50 µM, indicating the latter analogs likely kill parasites via a different mechanism to 916.
Whole parasite proteins were radiolabeled by culturing magnet-purified trophozoites (wild-type 3D7 or expressing PfEMP3-GFP) in Met/Cys-free medium for 30 min at 37°C before addition of 800 µCi/ml ^35S-Met/Cys (Perkin/Elmer) to the medium for the indicated times. Pellets were snap frozen in ethanol/dry ice bath and stored at −80°C. For radiolabeling in the presence of PMV inhibitor, parasites were treated with 20 µM WEHI-916 for 5 h before labeling commenced. For pulse-chases, proteins were radiolabeled in the presence or absence of inhibitor, as above, before further culture in radiolabel-free, inhibitor-free complete medium for the indicated times at 37°C before snap freezing. Frozen samples were either solubilized in Laemmli's buffer (Figure S4) or solubilized in 1% Triton X-100/PBS with protease inhibitor cocktail (Roche) and PfEMP3-GFP species immunopurified with α-GFP agarose (MBL) at 4°C for 2 h (Figures 3 and S3), and proteins were resolved by SDS-PAGE, visualized by autoradiography (7-d exposures), and quantified using a GS-800 Calibrated Densitometer (Bio-Rad).

[2] = molecular target: PfPMV (Plasmodium falciparum, UniProt Q8I6Z5); experiment: PEXEL cleavage assay with immunopurified PfPMVHA and fluorogenic KAHRP PEXEL peptide; type: biochemical; conditions: IC50 PfPMV, PfPMVHA
Protocol: (§1) To investigate PvPMVHA activity, we affinity purified it, as well as the PfPMVHA control, using anti-HA agarose, as previously described,[18]. […] The proteins were incubated with a fluorogenic peptide of nine amino acids that contained the PEXEL sequence from knob-associated histidine-rich protein (KAHRP), and efficient processing was observed by both enzymes (Figure 1E). Cleavage of KAHRP by PfPMVHA was previously shown to occur after Leu (RTL↓) by mass spectrometry, and this position was also confirmed for PvPMVHA (Figure S2B–E). […] In contrast, no processing was observed when the PEXEL Arg and Leu residues were mutated to Ala (ATAAQ), consistent with the substrate specificity of PfPMV (Figure 1E). To verify that processing was due to HA-tagged PMV rather than other co-precipitated proteases, we expressed in P. falciparum a mutant of PvPMVHA or PfPMVHA [13], where one or both catalytic Asp residues were mutated to Ala (see Figure 1A,B). Following affinity purification, the mutant enzymes were incubated with KAHRP PEXEL peptides, but no processing was observed (Figure 1E; blue, white), confirming that the PEXEL-dependent cleavage activity observed for each protease was attributable only to HA-tagged PMV.
(§2) Each compound was incubated with PfPMVHA in the presence of KAHRP PEXEL peptides.
(§3) PMV-agarose was prepared by adding α-HA-agarose (Sapphire Bioscience) to parasite lysates, prepared by sonication in 1% Triton X-100/PBS, for 1 h before extensive washing in same,[13]. PEXEL cleavage assays (20 µl total volume) consisted of 0.2 µl PMV-agarose in digest buffer (25 mM Tris, 25 mM MES, pH 6.4) with 1.5 µM FRET peptide substrate (DABCYL-[…]-E-EDANS, DABCYL-[…]-E-EDANS, LifeTein; DABCYL-[…]-E-EDANS, DABCYL-[…]-E-EDANS; Mimotopes) ± inhibitor. Samples were excited at 340 nm and fluorescence emission measured at 492 nm using an Envision fluorescence plate reader (Perkin-Elmer) heated to 37°C for 150 min. Samples were shaken between measurements. For determination of the peptide cleavage position by PvPMVHA, the fluorogenic peptide (DABCYL-[…]-E-EDANS), representing the wild-type KAHRP PEXEL sequence, was incubated with and without PvPMVHA at 37°C for 48 h. Products of the incubation were detected by a molecular formula algorithm using an Agilent 6200 TOF/6500 series mass spectrometer.

[3] = molecular target: PvPMV (Plasmodium vivax, UniProt A5K302); experiment: PEXEL cleavage assay with immunopurified PvPMVHA and fluorogenic KAHRP PEXEL peptide; type: biochemical
Protocol: (§5) To investigate PvPMVHA activity, we affinity purified it, as well as the PfPMVHA control, using anti-HA agarose, as previously described [13],[18].
(§6) PMV-agarose was prepared by adding α-HA-agarose (Sapphire Bioscience) to parasite lysates, prepared by sonication in 1% Triton X-100/PBS, for 1 h before extensive washing in same [12],[13]. […] Samples were excited at 340 nm and fluorescence emission measured at 492 nm using an Envision fluorescence plate reader (Perkin-Elmer) heated to 37°C for 150 min. Samples were shaken between measurements.

[4] = system: HEpG2 cells; experiment: Toxicity against human HEpG2 cells; type: cell-based; conditions: toxicity against human cell line
[5] = system: Human Foreskin Fibroblasts (HFF); experiment: Toxicity against Human Foreskin Fibroblasts; type: cell-based; conditions: Fibroblast
[6] = molecular target: PMV in P. falciparum–infected erythrocytes (Plasmodium falciparum, UniProt Q8I6Z5); experiment: PEXEL processing of GFP reporters in parasites by immunoblot; type: cell-based; conditions: 5 h treatment, immunoblot
Protocol: To assess whether 916 could inhibit PMV in P. falciparum–infected erythrocytes, parasites expressing the PEXEL protein P. falciparum erythrocyte membrane protein 3 (PfEMP3) fused to green fluorescent protein (GFP) were treated with increasing concentrations of inhibitor, and PEXEL processing was evaluated by immunoblot. […] A GFP-only band, representing degraded chimera in the food vacuole, was also observed at ∼26 kDa (Figure 3A).
(§4) Trophozoites (30–34 h) expressing PfEMP3-GFP, KAHRP-GFP, or SERA5s-GFP were magnet-purified (Miltenyi Biotech), incubated with inhibitors in 400 µl total volume at 37°C for 1–5 h, treated with 0.09% saponin containing inhibitor, and washed pellets were solubilized in Laemmli's buffer, boiled for 3 min, and frozen at −20°C. Proteins were separated by SDS-PAGE, transferred to nitrocellulose and blocked in 10% skim milk/PBS-T, and probed with rat α-HA (Roche 3F10; 1∶1,000), mouse α-GFP (Roche; 1∶1,000), rabbit α-Aldolase (1∶1,000), rabbit α-HSP70 (1∶4,000), rabbit α-PfPMV (1∶1,000), or rabbit α-Hyp8 (1∶500) primary antibodies followed by horseradish peroxidase-conjugated secondary antibodies (Silenius) and detected by enhanced chemiluminescence (Amersham).

[7] = system: signal peptidase; experiment: Signal peptide cleavage of SERA5s-GFP in parasites by immunoblot; type: cell-based, Plasmodium falciparum
Protocol: This protein contains a signal peptide but lacks a PEXEL and is efficiently secreted to the parasitophorous vacuole (Figure S3B).
as §4

[8] = system: CC(C)C[C@H](NC(=O)[C@@H](NC(=O)[C@H](CCCNC(=N)N)NC(=O)[C@H](CCCCN)NC(=O)[C@H](CC(N)=O)NC(=O)[C@H](CCCNC(=N)N)NC(=O)c1ccc(N=Nc2ccc(N(C)C)cc2)cc1)[C@@H](C)O)C(=O)N[C@@H](C)C(=O)N[C@@H](CCC(N)=O)C(=O)N[C@@H](CCCCN)C(=O)N[C@@H](CCC(N)=O)C(=O)N[C@@H](CCC(=O)NCCNc1cccc2c(S(=O)(=O)O)cccc12)C(N)=O; experiment: PEXEL cleavage assay with immunopurified PfPMVHA and fluorogenic KAHRP PEXEL peptide; type: biochemical, Plasmodium falciparum; conditions: other: Michaelis–Menten, 2 h; pH 6.4; 37.0 °C
Protocol: as §1, §2, §3

[9] = system: CC(C)C[C@H](NC(=O)[C@@H](NC(=O)[C@H](CCCNC(=N)N)NC(=O)[C@H](CCCCN)NC(=O)[C@H](CC(N)=O)NC(=O)[C@H](CCCNC(=N)N)NC(=O)c1ccc(N=Nc2ccc(N(C)C)cc2)cc1)[C@@H](C)O)C(=O)N[C@@H](C)C(=O)N[C@@H](CCC(N)=O)C(=O)N[C@@H](CCCCN)C(=O)N[C@@H](CCC(N)=O)C(=O)N[C@@H](CCC(=O)NCCNc1cccc2c(S(=O)(=O)O)cccc12)C(N)=O; experiment: PEXEL cleavage assay with immunopurified PvPMVHA and fluorogenic KAHRP PEXEL peptide; type: biochemical, Plasmodium vivax; conditions: other: Michaelis–Menten, 2 h; pH 6.4; 37.0 °C
Protocol: as §5, §6

Chain of PMV in P. falciparum–infected erythrocytes (Q8I6Z5 whole entry, the tested form may be a part): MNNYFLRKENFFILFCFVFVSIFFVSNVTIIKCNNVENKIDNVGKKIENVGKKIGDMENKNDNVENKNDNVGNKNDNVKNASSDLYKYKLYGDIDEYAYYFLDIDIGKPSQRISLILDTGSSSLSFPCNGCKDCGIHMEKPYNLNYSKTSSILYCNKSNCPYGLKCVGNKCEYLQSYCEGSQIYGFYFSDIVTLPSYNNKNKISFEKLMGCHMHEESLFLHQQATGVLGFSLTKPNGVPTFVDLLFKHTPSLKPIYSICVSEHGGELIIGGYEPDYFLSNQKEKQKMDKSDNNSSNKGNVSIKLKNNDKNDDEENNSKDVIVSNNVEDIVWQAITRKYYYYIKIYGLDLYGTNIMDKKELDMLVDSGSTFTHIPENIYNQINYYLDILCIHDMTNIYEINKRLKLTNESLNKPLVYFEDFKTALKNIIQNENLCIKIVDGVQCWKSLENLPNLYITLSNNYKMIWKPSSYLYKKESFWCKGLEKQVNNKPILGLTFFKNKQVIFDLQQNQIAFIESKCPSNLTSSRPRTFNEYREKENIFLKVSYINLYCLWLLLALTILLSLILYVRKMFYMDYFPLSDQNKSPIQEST
Chain of PvPMV (A5K302 35-536): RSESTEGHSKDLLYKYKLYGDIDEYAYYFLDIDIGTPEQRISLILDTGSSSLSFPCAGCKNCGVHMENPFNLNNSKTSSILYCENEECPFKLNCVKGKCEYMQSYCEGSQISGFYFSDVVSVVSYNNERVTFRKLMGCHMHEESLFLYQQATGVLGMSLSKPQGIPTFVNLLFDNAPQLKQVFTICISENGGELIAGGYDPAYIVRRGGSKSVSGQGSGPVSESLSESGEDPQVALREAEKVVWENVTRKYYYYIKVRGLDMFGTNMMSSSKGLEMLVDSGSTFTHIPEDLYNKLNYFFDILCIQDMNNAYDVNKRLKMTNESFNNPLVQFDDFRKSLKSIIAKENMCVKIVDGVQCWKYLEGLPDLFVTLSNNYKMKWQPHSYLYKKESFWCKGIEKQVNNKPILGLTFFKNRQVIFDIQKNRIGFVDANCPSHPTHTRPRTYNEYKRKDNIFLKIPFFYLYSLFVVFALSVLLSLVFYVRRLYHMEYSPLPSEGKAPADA
Chain of PfPMV (Q8I6Z5 34-590): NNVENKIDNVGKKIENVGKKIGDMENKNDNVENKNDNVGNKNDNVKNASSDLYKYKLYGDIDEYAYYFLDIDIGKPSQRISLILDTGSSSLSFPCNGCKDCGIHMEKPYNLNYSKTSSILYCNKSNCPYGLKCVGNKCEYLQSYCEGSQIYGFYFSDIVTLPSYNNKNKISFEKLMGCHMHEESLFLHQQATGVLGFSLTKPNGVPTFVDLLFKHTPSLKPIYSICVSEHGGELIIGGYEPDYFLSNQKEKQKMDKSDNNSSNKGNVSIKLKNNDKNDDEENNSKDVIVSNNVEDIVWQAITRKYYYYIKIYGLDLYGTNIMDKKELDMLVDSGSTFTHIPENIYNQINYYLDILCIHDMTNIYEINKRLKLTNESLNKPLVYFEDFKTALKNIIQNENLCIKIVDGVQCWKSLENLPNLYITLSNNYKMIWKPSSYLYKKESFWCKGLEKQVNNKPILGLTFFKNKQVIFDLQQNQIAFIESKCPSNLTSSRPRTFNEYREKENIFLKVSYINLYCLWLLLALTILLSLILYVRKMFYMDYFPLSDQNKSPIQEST

C[C@H]1CCC/C=C/[C@@H]2C[C@H](O)C[C@H]2[C@H](O)/C=C/C(=O)O1 [Brefeldin A, reference compound]
Global protein synthesis after 23 h treatment of rings [1]: severely impaired translation
Global protein synthesis after 23 h treatment of rings ([1]; listed as BFA): severely reduced translation
Global protein synthesis after 5 h treatment of trophozoites [1]: no defect in global protein synthesis

CC(C)C[C@H](NC(=O)[C@@H](NC(=O)[C@H](CCCCN)NS(=O)(=O)Cc1ccccc1)C(C)C)[C@@H](O)CC(=O)NCCc1ccccc1 [compound 024, PhCH2SO2-Lys(NH2)-Val-Sta-NH(CH2)2Ph .TFA]
IC50 [2]: > 100 µM
Activity against PvPMVHA, in words [3]: weak activity
IC50 [3]: > 100 µM
IC50 [4]: > 100 µM
IC50 [5]: > 100 µM
PEXEL processing of KAHRP-GFP in parasites, in words ([6]; 20 and 50 µM): no effect
PEXEL processing of PfEMP3-GFP in parasites, in words ([6]; up to 50 µM): no effect
Signal peptide cleavage of SERA5s-GFP, in words ([7]; 20 µM for 5 h): no defect
Effect on PMV or signal peptidase activity in parasites, in words ([7]; concentrations up to 50 µM): no affect
Global protein synthesis after 23 h treatment of rings [1]: no defect in global protein synthesis
Global protein synthesis after 5 h treatment of trophozoites [1]: no defect in global protein synthesis

PfPMV (Plasmodium falciparum 3D7)
Km [8]: 11.7 (±1.8) µM

PvPMV (Plasmodium vivax Sal-1)
Km [9]: 9.7 (±3.0) µM
